Laboratory results as given in publication PMC10824102, “Identification of small molecule inhibitors of G3BP-driven stress granule formation” (The Journal of Cell Biology, 2024).

Experiments:
[1] = tested on: preformed stress granules in U2OS cells stably expressing G3BP1-GFP; experiment: Post-addition: dissolution of preformed arsenite-induced stress granules; type: cell-based; conditions: 50 μM added after 30 min of 250 μM NaAsO2
Description: For post-addition of compounds, U2OS cells stably expressing G3BP1-GFP were seeded into eight-well Lab-Tek chambered cover glass (Nunc) for sodium arsenite experiments or 35-mm glass-bottom dishes (MatTek) for heat shock experiments. Immediately prior to the experiment, media was replaced with FluoroBrite DMEM media (Gibco) in each well supplemented with 10% FBS and 4 mM L-glutamine; for sodium arsenite experiments, arsenite was added at a final concentration of 250 μM. Cells were then placed on a microscope on which 37°C temperature and 5% CO2 were maintained using a Bold Line Cage Incubator (Okolab) and an objective heater (Bioptechs), and 5–10 xy fields were stored. For sodium arsenite experiments, acquisition began immediately after finding all xy positions, 4 min after the addition of sodium arsenite. 30 min after arsenite was added, 250 μl FluoroBrite DMEM with 250 μM sodium arsenite and 0.1 mM (2×) G3I compound (vortexed for 5 s) was added to the sample. For heat shock experiments, each xy position was imaged every minute. At 2 min into the acquisition, the objective heater was ramped to 43°C. Following this, 250 μM (5×) G3I compound was prepared in FluoroBrite DMEM and vortexed for 15 s. This solution was kept on a 47°C heater near the microscope along with a pipette tip. […]

[2] = biological target: T1, interaction between G3BP1 and endogenous caprin 1 (Homo sapiens, UniProt Q13283); experiment: Coimmunoprecipitation of G3BP1-GFP with endogenous caprin 1 in U2OS lysates; type: biochemical; conditions: increasing concentrations added to U2OS G3BP1-GFP lysates, GFP IP
T1 construct: expressed in transfected cells; host or cells: U2OS cells stably expressing G3BP1-GFP (lysate)
Description: U2OS cells expressing G3BP1-GFP were grown in 3-cm dishes to 100% confluency, at which point cells were collected and pelleted at 400 × g for 5 min. Pellets were either stored at −80°C or processed the same day by lysing with 200 μl in vivo lysis buffer (150 mM NaCl, 50 mM Tris [pH 7.5], 1 mM EDTA, 0.5% NP-40, and 10% glycerol, supplemented with 1 protease inhibitor tablet [11836170001; Roche]). Lysates were centrifuged at 13,000 × g at 4°C for 15 min, after which supernatants were transferred to a new tube and diluted with 200 μl lysis buffer containing indicated concentrations of G3I compounds. The mixture was then incubated with GFP-Trap (ChromoTek GFP-Trap Magnetic Agarose; Proteintech; gtma) for 2 h at 4°C. Beads were washed three times with lysis buffer, then incubated with 1× SDS sample buffer supplemented with 10% 2-mercaptoethanol, and boiled for 5 min at 95°C. Lysates were subjected to SDS-PAGE and then immunoblotted.
Samples were separated by SDS-PAGE and transferred to membranes. […] Membranes were visualized and quantified with an Odyssey Fc imaging system (LI-COR) and normalized to the amount of G3BP1 immunoprecipitated.

[3] = tested on: preformed stress granules in U2OS cells stably expressing G3BP1-GFP; experiment: Post-addition: dissolution of heat stress-induced stress granules; type: cell-based; conditions: for immediate reduction in stress granule area (preformed granules): 50 μM added after 25 min of 43°C heat stress; for stress granule disassembly during recovery at 37°C: 50 μM, compared with cells treated with inactive enantiomers
Description: For post-addition of compounds, U2OS cells stably expressing G3BP1-GFP were seeded into eight-well Lab-Tek chambered cover glass (Nunc) for sodium arsenite experiments or 35-mm glass-bottom dishes (MatTek) for heat shock experiments. Immediately prior to the experiment, media was replaced with FluoroBrite DMEM media (Gibco) in each well supplemented with 10% FBS and 4 mM L-glutamine; for sodium arsenite experiments, arsenite was added at a final concentration of 250 μM. Cells were then placed on a microscope on which 37°C temperature and 5% CO2 were maintained using a Bold Line Cage Incubator (Okolab) and an objective heater (Bioptechs), and 5–10 xy fields were stored. For sodium arsenite experiments, acquisition began immediately after finding all xy positions, 4 min after the addition of sodium arsenite. 30 min after arsenite was added, 250 μl FluoroBrite DMEM with 250 μM sodium arsenite and 0.1 mM (2×) G3I compound (vortexed for 5 s) was added to the sample. For heat shock experiments, each xy position was imaged every minute. At 2 min into the acquisition, the objective heater was ramped to 43°C. Following this, 250 μM (5×) G3I compound was prepared in FluoroBrite DMEM and vortexed for 15 s. This solution was kept on a 47°C heater near the microscope along with a pipette tip. At 27 min into the acquisition (25 min into heat shock), 250 μl of the prewarmed solution was added to the cells using the prewarmed tip. We note that the solution was heated to 47°C to compensate for the rapid heat loss when adding the solution. At 32 min into the acquisition (30 min heat shock), the heat was ramped down to 37°C. All imaging was acquired on a Yokogawa CSU W1 spinning disk attached to a Nikon Ti2 eclipse with a Photometrics Prime 95B camera using Nikon Elements software (v5.20.00 to v5.21.02). Imaging was performed through a Nikon Plan Apo 60× 1.40 NA oil objective with Immersol 518 F (refractive index 1.518; Zeiss), and Perfect Focus 2.0 (Nikon) was engaged for all captures.
Automated granule detection and measurement were performed using a combination of ilastik and CellProfiler software. Briefly, ND2 multipoint timelapse files were resaved as image sequences in Fiji with the Bio-Formats plugin so that individual frames of the movies could be treated as individual images for analysis. From there, pixel classification in ilastik was used to segment both stress granules and the total cellular area within the field using the G3BP1-GFP channel via machine learning. These segmentations, along with the original G3BP1-GFP image, were input into CellProfiler, where objects were defined using the masks from ilastik.

T1 sequence (Q13283 whole entry): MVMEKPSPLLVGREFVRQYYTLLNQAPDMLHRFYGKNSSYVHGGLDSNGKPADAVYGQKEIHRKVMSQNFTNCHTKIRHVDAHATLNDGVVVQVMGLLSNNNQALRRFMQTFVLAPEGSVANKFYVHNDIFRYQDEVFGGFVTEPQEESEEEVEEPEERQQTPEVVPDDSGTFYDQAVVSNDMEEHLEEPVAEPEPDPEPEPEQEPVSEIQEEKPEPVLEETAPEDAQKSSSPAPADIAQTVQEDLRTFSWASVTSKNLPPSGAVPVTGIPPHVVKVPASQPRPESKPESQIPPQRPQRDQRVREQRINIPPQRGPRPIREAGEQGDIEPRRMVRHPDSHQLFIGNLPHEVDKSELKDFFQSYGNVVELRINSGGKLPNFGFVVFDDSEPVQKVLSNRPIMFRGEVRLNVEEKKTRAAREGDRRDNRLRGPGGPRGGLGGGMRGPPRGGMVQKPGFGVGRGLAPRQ

Compound	reduction of stress granule area (preformed granules) [1]	interaction between G3BP1 and endogenous caprin 1 [2]	immediate reduction in stress granule area (preformed granules) [3]	stress granule disassembly during recovery at 37°C [3]
CC(NC(=O)C(NC(=O)C(NC(=O)CCC(C)(C)C)C(C)(C)O)C(C)c1ccccc1)C(=O)N1CCCC1c1ccccc1 (centres unmarked) [G3Ib]	~84%	dose-dependent reduction	~68%	completed disassembly faster
CC(NC(=O)C(NC(=O)C(NC(=O)CCC(C)(C)C)C(C)(C)O)C(C)c1ccccc1)C(=O)N1CCCC1c1ccccc1 (centres unmarked) [G3Ib′]		no such effect		
COCCC(NC(=O)C(C)NC(=O)C(NC(=O)C(NC(=O)C(F)CC(C)(C)C)C(C)(C)O)C(C)c1ccccc1)C(=O)N(C)Cc1ccccc1 (centres unmarked) [G3Ia]	~74%		~54%	completed disassembly faster
